{"source": "patent US20220213030A1", "about": "“AMINOGUANIDINE HYDRAZONES AS RETROMER STABILIZERS USEFUL FOR TREATING NEUROLOGICAL DISEASES” (OSPEDALE SAN RAFFAELE SRL, priority 2019, published 2022)", "assay_type_in_all_cases": "in vivo, mouse", "details_in_all_cases": "10 mg/kg, day 100", "key": {"VPS26": {"tested_on": "VPS26", "experiment": "VPS26 MFI in NeuN+ MNs of G93A mice", "excerpt": "(§1) We next assayed retromer proteins labelling sections of mice sacrificed at day 100 for VPS35 and NeuN. […] Similarly, we observed that VPS26 levels were increased in G93A mice receiving compound 2a (FIG. 11B). We further corroborated our experimental finding observing that compound 2a increased retromer functionality. The cation-independent mannose 6-phosphate receptor (CI-MPR) is a cargo (Arighi et al., 2004) of the retromer complex that is unstable in VPS26 knockout cells (Seaman 2004). We observed a substantial reduction of CI-MPR MFI levels in MNs of vehicle-treated G93A mice when compared with WT litters (FIG. 11C). […]\n(§2) Fluorescence intensity levels of VPS35, VPS26, Sortilin, CTSD and Ubiquitin were calculated using NHI-Image J software (US National Institutes of Health) according to the following protocol: stacks of confocal images were used to generate the maximal projections (Las-X) and then post-processed by NHI-Image J to crop single NeuN^+ MNs from the ventral horn of the spinal cord. We next performed background (calculated on adjacent slices only receiving secondary antibodies) subtraction for each channel, before applying the NHI-Image J mean filter (with radius 2.0 pixels) to calculate mean NeuN fluorescence levels in individual MN. […] On this selected ROI, we calculated mean fluoresce levels (MFI) of each protein."}, "Sortilin": {"tested_on": "Sortilin", "experiment": "Sortilin MFI in MNs of G93A mice", "excerpt": "as §1, §2"}, "Cathepsin D (CTSD)": {"tested_on": "Cathepsin D (CTSD)", "experiment": "Cathepsin D expression and maturation in G93A mice", "excerpt": "We next investigated Cathepsin D (CTSD) expression and distribution in G93A mice, since it is known that the trafficking of this lysosomal enzyme involves the retromer complex (Seaman 2004). In humans, maturation of CTSD starts with a pre-pro-CTSD that is converted to pro-CTSD (52 kDa) in the endoplasmic reticulum. Recycling of pro-CTSD, and its downstream migration to acidic compartments involves CI-MPR and the retromer pathway. In late endosomes, pro-CTSD is further processed to an intermediate form (48 kDa), and finally converted to mature CTSD (34 kDa) in lysosomes (Laurent-Matha 2006). The inactivation of VPS35 or the knockdown of VPS26 affect the maturation of CTSD. We scored CTSD levels in equal amounts of lumbar SC extracts obtained from vehicle-treated WT, G93A mice receiving the vehicle, and G93A treated with lead 2a. […] We next analyzed CTSD levels in MNs by confocal microscopy. We observed a significant reduction of this protease in MNs of vehicle-treated G93A, while such levels increased in G93A mice treated with compound 2a (FIG. 11F). Similarly, numbers of CTSD^+ puncta in lumbar NeuN^+ MNs were reduced in vehicle-treated G93A MNs, while they increased in compound 2a-treated mice (FIG. 11F).\nFluorescence intensity levels of VPS35, VPS26, Sortilin, CTSD and Ubiquitin were calculated using NHI-Image J software (US National Institutes of Health) according to the following protocol: stacks of confocal images were used to generate the maximal projections (Las-X) and then post-processed by NHI-Image J to crop single NeuN^+ MNs from the ventral horn of the spinal cord. We next performed background (calculated on adjacent slices only receiving secondary antibodies) subtraction for each channel, before applying the NHI-Image J mean filter (with radius 2.0 pixels) to calculate mean NeuN fluorescence levels in individual MN. Using this approach, we established a region of interest (ROI) that gated single MN. On this selected ROI, we calculated mean fluoresce levels (MFI) of each protein."}, "Golgi apparatus (GM130)": {"tested_on": "Golgi apparatus (GM130)", "experiment": "GM130 Golgi labelling in MNs of G93A mice", "excerpt": "Ubiquitinated inclusions accumulate in MNs of sALS and fALS patients and in lumbar SCs of ALS mice (Kabashi 2001). High levels of ubiquitinated proteins may represent an overwhelmed response of MNs to protein misfolding and aggregation, as well as a reduction of lysosome functionality. We characterized poly-ubiquitinated proteins in lumbar SCs protein extracts by 10% denaturating PAGE. We included in our experiments protein extracts from Neuro2a cells treated with the proteasome inhibitor Bortezomib (BTZ), able to increase poly-ubiquitination, as an experimental control (FIG. 13A). […] We next scored ubiquitin MFI levels in ventral horn MNs of G93A mice. […] As previously observed in Neuro2a cells, the overexpression of G93A plasmids affects the Golgi apparatus, therefore we asked whether similar alterations can occur in G93A mice by labeling lumbar sections for the cis-Golgi matrix protein GM130.\nSections from mice (frozen cryo sections) or glass covers containing cells were washed three times in PBS 1× (Lonza, 5 min each), and incubated in the following blocking mix: PBS 1×/FBS 10% (Invitrogen), BSA 1 mg/mL (Sigma), TritonX100 0.1% (Sigma), for 1 h at room temperature. Antibodies were diluted in blocking mix and incubated at +4° C. overnight according manufacturer's instructions. […]"}}}
{"smiles": "N=C(N)NN=Cc1cccc(C=NNC(=N)N)c1", "note": "[Compound 2a, 1,3-Bis-amino guanidine phenyl hydrazone]", "values": [{"measurement": "VPS26 levels (MFI)", "setting": "VPS26", "value": "increased"}, {"measurement": "Sortilin MFI levels", "setting": "Sortilin", "value": "significantly increased Sortilin levels"}, {"measurement": "CTSD levels in MNs (confocal MFI)", "setting": "Cathepsin D (CTSD)", "value": "increased"}, {"measurement": "levels of mature CTSD (WB, lumbar SC extracts)", "setting": "Cathepsin D (CTSD)", "value": "significantly increased"}, {"measurement": "numbers of CTSD+ puncta in lumbar NeuN+ MNs", "setting": "Cathepsin D (CTSD)", "value": "increased"}, {"measurement": "reduction of GM130-covered areas in MNs", "setting": "Golgi apparatus (GM130)", "value": "substantially reverted"}]}
